Reference: patent publication EP1018560A1, “VECTORS FOR TREATING CANCER” (Dnavec Research Inc., priority 1997, dated 1999)
Counter-ions that a name gives are not always drawn. Starred links: 1 amine or outer side, 2 acyl side, 3 side chain; linkers in the order of their positions; H or OH if unused. Positions of bridges follow the written chain, without caps; N, C: chain ends. Non-standard residues stand in square brackets, D forms with d. Residues, ends and D or L forms follow the SMILES beside them. Chains are numbered I, II in the order given. Actinocin(9to1) = Cc1c2oc3c(C)ccc(C(=O)[*:1])c3nc-2c(C(=O)[*:2])c(N)c1=O; NMeV = CN[C@H](C(=O)O)C(C)C; Sar = CNCC(=O)O

Tests used:
U2OS cells (p53+) = assay: Potentiation of p53-dependent suppression of expression by antitumor agents (β-galactosidase activity); format: cell-based
Experimental: U2OS cells (p53+) that had been placed into six-well plates (6 x 10^5 cells per well) on the previous day were infected with AxYp53RECre at the indicated MOIs. Various compounds (actinomycin D, doxorubicin hydrochloride, etoposide, and nocodazole, all from Sigma, USA) were then added at the indicated concentrations. On the next day, the compounds were removed, and AxCAYLLZ was infected at the indicated MOIs. Six days later, crude extracts of infected cells were prepared and assayed for β-galactosidase activity similarly as described in 3-1). […]

[1] = tested on: p53-Deficient Saos2 cells; assay: Cell death specific to p53-deficient cells (ganciclovir sensitivity, viable cell number); format: cell-based, human; conditions: combination of AxYp53RECre, AxCAYLTK, and ganciclovir; Saos2 versus U20S cells
Experimental: p53-Deficient Saos2 cells and p53-expressing U20S cells were inoculated then cultured in the presence of 50 ng/ml nocodazole (Sigma, USA) on the next day. Nocodazole was removed on the following day, and the cells were infected with AxYp53RECre at the indicated MOIs. On the day after that, the cells were further infected with AxCAYLTK at the indicated MOIs. Three days later, infected cells were placed into 96-well plates at a quantity of 2000 cells/well, and various concentrations of ganciclovir (Nippon Roche) were added thereto. Seven days later, the number of viable cells was counted using a Cell Titer 96 AQueous Non-Radioactive Cell Proliferation Assay (Promega, USA). […] In this figure, "% viable cell number" refers to the relative number of cells compared to the number of cells in the absence of ganciclovir taken as 100. Mean values of five samples are shown. Error bars show standard deviations.

In the case of `Cc1c2oc3c(C)ccc(C(=O)N[C@@H]4C(=O)N[C@H](C(C)C)C(=O)N5CCC[C@H]5C(=O)N(C)CC(=O)N(C)[C@@H](C(C)C)C(=O)O[C@@H]4C)c3nc-2c(C(=O)N[C@@H]2C(=O)N[C@H](C(C)C)C(=O)N3CCC[C@H]3C(=O)N(C)CC(=O)N(C)[C@@H](C(C)C)C(=O)O[C@@H]2C)c(N)c1=O` [actinomycin D] (I: T[dV]P[Sar][NMeV] / II: T[dV]P[Sar][NMeV]; ester I:1-I:C, II:1-II:C; linker I:N-II:N via Actinocin(9to1)), the “Remaining β-galactosidase activity” value (U2OS cells (p53+); AxCAYLLS MOI 10, pAxYp53RECre MOI 0, 10 ng/ml actinomycin D (reference)) is reported as 100% and the “Remaining β-galactosidase activity” value (U2OS cells (p53+); AxCAYLLS MOI 10, pAxYp53RECre MOI 30, 10 ng/ml actinomycin D) is reported as 2.4%.

In the case of `COc1cccc2c1C(=O)c1c(O)c3c(c(O)c1C2=O)C[C@@](O)(C(=O)CO)C[C@@H]3O[C@H]1C[C@H](N)[C@H](O)[C@H](C)O1` [doxorubicin, doxorubicin hydrochloride], the “Remaining β-galactosidase activity” value (U2OS cells (p53+); AxCAYLLS MOI 10, pAxYp53RECre MOI 0, 100 ng/ml doxorubicin (reference)) is reported as 100% and the “Remaining β-galactosidase activity” value (U2OS cells (p53+); AxCAYLLS MOI 10, pAxYp53RECre MOI 30, 100 ng/ml doxorubicin) is reported as 0.5%.

`COc1cc([C@@H]2c3cc4c(cc3[C@@H](O[C@@H]3O[C@@H]5CO[C@@H](C)O[C@H]5[C@H](O)[C@H]3O)[C@H]3COC(=O)[C@H]23)OCO4)cc(OC)c1O` [etoposide] was tested, and the “Remaining β-galactosidase activity” value (U2OS cells (p53+); AxCAYLLS MOI 10, pAxYp53RECre MOI 0, 1000 ng/ml etoposide (reference)) was 100% and the “Remaining β-galactosidase activity” value (U2OS cells (p53+); AxCAYLLS MOI 10, pAxYp53RECre MOI 30, 1000 ng/ml etoposide) was 0.6%.

In the case of `Nc1nc(O)c2ncn(COC(CO)CO)c2n1` [ganciclovir], the cell death [1] is reported as “caused cell death specific to p53-deficient cells”.

In the case of `COC(=O)Nc1nc2ccc(C(=O)c3cccs3)cc2[nH]1` [nocodazole], the “Remaining β-galactosidase activity” value (U2OS cells (p53+); AxCAYLLS MOI 10, pAxYp53RECre MOI 0, 50 ng/ml nocodazole (reference)) is reported as 100% and the “Remaining β-galactosidase activity” value (U2OS cells (p53+); AxCAYLLS MOI 10, pAxYp53RECre MOI 10, 50 ng/ml nocodazole) is reported as 31%.
